Assay results reported in publication PMC10048095, “Sol-Gel Films Doped with Enzymes and Banana Crude Extract as Sensing Materials for Spectrophotometric Determination” (Gels, 2023).

Assays:
Mushroom tyrosinase (MT) = test system: T1, Mushroom tyrosinase (MT); details: read-out: KM, mM / Solution; free enzyme in solution; pH 6.0 buffer; air oxygen
T1 construct: gene PPO3

[1] = molecular target: T2, Horseradish peroxidase (HRP) (Armoracia rusticana, UniProt P00433); experiment: absorbance at […] nm, initial rates; type: biochemical; details: H2O2 as co-substrate; enzyme in solution and in sol-gel films; pH 6.0
T2 construct: gene PRXC1A
T2 sequence (P00433 31-338): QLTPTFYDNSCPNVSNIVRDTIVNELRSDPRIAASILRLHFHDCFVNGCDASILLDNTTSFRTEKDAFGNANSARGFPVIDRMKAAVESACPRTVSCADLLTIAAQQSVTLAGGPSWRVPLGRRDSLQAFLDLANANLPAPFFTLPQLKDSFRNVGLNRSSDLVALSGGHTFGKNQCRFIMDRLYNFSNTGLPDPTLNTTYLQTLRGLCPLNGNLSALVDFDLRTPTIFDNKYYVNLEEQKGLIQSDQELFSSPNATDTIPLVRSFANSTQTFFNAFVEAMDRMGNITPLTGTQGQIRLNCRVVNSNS

With `O=C(O)/C=C/c1ccc(O)c(O)c1` [Caffeic acid] the Km (Mushroom tyrosinase (MT)) was 1.1 mM.

For `Cc1cc(-c2cc(C)c(N)c(C)c2)cc(C)c1N` [3,3′,5,5′-tetramethylbenzidine], the “absorbance at 650 nm, initial rates” value [1] was “hydrogen peroxide reduction with TMB oxidation”.
